The source of these data is patent publication USRE37556E1, “Superoxide radical inhibitor” (Otsuka Pharmaceutical Co., Ltd., priority 1990, dated 2002).

The subject of this experiment is human neutrophilic leukocytes. The experiment in a line: Inhibition of superoxide radical (O2-) generation in FMLP-stimulated human neutrophilic leukocytes (ferricytochrome C method). The class given is cell-based. From the text: (1) Activity for inhibiting the generation of superoxide radical (O2^−) in human neutrophilic leukocytes
That is, a whole blood obtained from a healthy adult and treated by anticoagulation method was subjected to a dextranhypotonic treatment to obtain leukocyte cells. The leukocyte cells were then subjected to a density gradient ultracentrifugation by Ficoll-Paque to obtain a neutrophilic leukocyte fraction.
O2^− generation was examined by the ferricytochrome C method in accordance with the method of B. N. Cronstein et al. [Journal of Experimental Medicine, vol. […] Each test compound was dissolved in dimethyl sulfoxide (DMSO); the solution was added to neutrophilic leukocytes before the addition of FMLP; then, the neutrophilic leukocytes were pre-incubated at 37° C.

[1] abbreviates: Homo sapiens, Leukocyte, pH 7.4, Table 15, O2- generation, 3x10^-7 M FMLP, cytochalasin B, 37° C., pH 7.4.
[2] abbreviates: Table 15, O2- generation, 3x10^-7 M FMLP, cytochalasin B, 37° C., pH 7.4.
[3] abbreviates: Homo sapiens, Leukocyte, Table 16, comparative test present compounds vs prior art compounds, NE = not effective.

Structures can show the parent of a compound that is named as a salt.

In turn, `COc1ccc(-c2nc(-c3ccc4[nH]c(=O)oc4c3)cs2)cc1OC` [compound 55, 2-(3,4-Dimethoxyphenyl)-4-(2-oxobenzoxazol-6-yl)thiazole] gave an IC50 under setting [1] of 70 nM. As to `Fc1ccc(-c2csc(-c3cccnc3)n2)cc1.Fc1ccc(-c2csc(-c3cccnc3)n2)cc1.Fc1ccc(-c2csc(-c3cccnc3)n2)cc1.[Cl][Fe][Cl]` [compound 56, 2-(3-Pyridyl)-4-(4-fluorophenyl)thiazole-⅓ FeCl2 salt], the IC50 under setting [2] amounted to 1000 nM. Turning to `COc1ccc(-c2nc(-c3ccc4[nH]c(=O)c(=O)[nH]c4c3)cs2)cc1OC` [compound 57, 2-(3,4-Dimethoxyphenyl)-4-(2,3-dioxo-1,2,3,4-tetrahydro-quinoxalin-6-yl)thiazole], the IC50 under setting [1] came to 300 nM.

Under setting [1], `COc1ccc(C(=O)c2nc(-c3ccc4c(c3)CCC(=O)N4)cs2)cc1OC` [compound 58, 2-(3,4-Dimethoxybenzoyl)-4-(3,4-dihydrocarbostyril-6-yl)thiazole] registered a concentration for half-maximal inhibition (IC50) of 1000 nM. On the same count and under the same terms, the value for `CCOc1ccc(-c2nc(-c3ccc4c(c3)CCC(=O)N4)cs2)cc1OCC` [compound 59, 2-(3,4-Diethoxyphenyl)-4-(3,4-dihydrocarbostyril-6-yl)thiazole] was 80 nM; that for `COc1ccc(-c2nc(-c3ccccn3)cs2)cc1OC` [compound 60, 2-(3,4-Dimethoxyphenyl)-4-(2-pyridyl)thiazole hydrochloride] was 50 nM. Still for that read-out and setting: the value for `CCOc1ccc(-c2nc(-c3cc(O)cc(O)c3)cs2)cc1OCC` [compound 61, 4-(3,5-Dihydroxyphenyl)-2-(3,4-diethoxyphenyl)-thiazole] was 3 nM; that for `COc1ccc(-c2nc(-c3ccc(OS(=O)(=O)O)cc3)cs2)cc1OC` [compound 63, 4-(4-Hydroxysulfonyloxyphenyl)-2-(3,4-dimethoxyphenyl)thiazole] was 30 nM; that for `CCOc1ccc(-c2nc(-c3ccc(O)cc3)cs2)cc1OCC` [compound 64, 4-(4-Hydroxyphenyl)-2-(3,4-diethoxyphenyl)thiazole] was 40 nM.

`CCOc1ccc(-c2nc(-c3ccc(O)c(NC(C)=O)c3)cs2)cc1OCC` [compound 65, 4-(3-Acetylamino-4-hydroxyphenyl)-2-(3,4-diethoxyphenyl)thiazole] gave an IC50 under setting [1] of 60 nM.

`CCOc1ccc(-c2nc(-c3ccc(O)c(N)c3)cs2)cc1OCC` [compound 66, 4-(4-Hydroxy-3-aminophenyl)-2-(3,4-diethoxyphenyl)thiazole dihydrochloride] showed an IC50 under setting [1] of 60 nM.

Regarding `CCOc1ccc(-c2nc(-c3ccc(C#N)cc3)cs2)cc1OCC` [compound 67, 4-(4-Cyanophenyl)-2-(3,4-diethoxyphenyl)thiazole], under setting [1], the concentration for half-maximal inhibition (IC50) is 70 nM. Consider `CCCOc1cc(-c2nc(-c3ccc4c(c3)CCC(=O)N4)cs2)ccc1OC` [compound 68, 4-(3,4-Dihydrocarbostyril-6-yl)-2-(4-methoxy-3-propoxy-phenyl)thiazole], for which half-maximal inhibition under setting [1] (IC50) was put at 80 nM. On to `CCOc1ccc(-c2nc(-c3ccc(C(=N)N)cc3)cs2)cc1OCC` [compound 69, 4-(4-Amidinophenyl)-2-(3,4-diethoxyphenyl)thiazole hydrochloride], for which, under setting [1], the IC50 stood at 100 nM. On the same count and under the same terms, the value for `COc1ccc(-c2nc(-c3c(O)cc(O)cc3O)cs2)cc1OC` [compound 70, 4-(2,4,6-Trihydroxyphenyl)-2-(3,4-dimethoxyphenyl) thiazole] was 200 nM; that for `COc1ccc(-c2nc(-c3cc(N)cc(N)c3)cs2)cc1OC` [compound 71, 4-(3,5-Diaminophenyl)-2-(3,4-dimethoxyphenyl) thiazole dihydrochloride] was 200 nM; that for `CCOc1ccc(-c2nc(-c3ccc(N)cc3)cs2)cc1OCC` [compound 72, 4-(4-Aminophenyl)-2-(3,4-diethoxyphenyl)thiazole hydrochloride] was 200 nM. For the compound `CCOc1ccc(-c2nc(C(O)c3ccc(OC)c(OC)c3)cs2)cc1OCC` (stereo not shown) [compound 73, 4-[1-Hydroxy-1-(3,4-dimethoxyphenyl)methyl]-2-(3,4-diethoxyphenyl)thiazole], half-maximal inhibition under setting [1] (IC50) was put at 200 nM.

With `CCN1CCN(c2cc(-c3csc(-c4ccc(O)c(O)c4)n3)ccc2OC)CC1` [compound 74, 4-[4-Methoxy-3-(4-ethyl-1-piperazinyl)phenyl]-2-(3,4-dihydroxyphenyl)thiazole trihydrochloride], under setting [1], inhibition was half-maximal at 300 nM (IC50). Still for that read-out and setting: the value for `CCOc1ccc(-c2nc(-c3ccc(Cl)cc3)cs2)cc1OCC` [compound 75, 4-(4-Chlorophenyl)-2-(3,4-diethoxyphenyl)thiazole] was 600 nM; that for `CC(=O)Oc1ccc(-c2csc(-c3cccnc3)n2)cc1OC(C)=O` [compound 76, 4-(3,4-Diacetyloxyphenyl)-2-(3-pyridyl)thiazole] was 600 nM. On to `COC(=O)C1OC(Oc2ccc(-c3csc(-c4ccc(OC)c(OC)c4)n3)cc2)C(O)C(O)C1O` [compound 77, Methyl 4-[2-(3,4-dimethoxyphenyl)thiazole-4-yl]phenyl-β-D-glucopyranosidouronate], for which it took 800 nM to reach half-maximal inhibition under setting [2] (IC50). Take `CCOc1ccc(-c2nc(-c3ccc(O[C@@H]4O[C@H](COC(C)=O)[C@@H](OC(C)=O)[C@H](OC(C)=O)[C@H]4OC(C)=O)cc3)cs2)cc1OCC` [compound 78, 2-(3,4-Diethoxyphenyl)-4-[4-(2,3,4,6-tetra-0-acetyl-β-D-glucopyranosyloxy)phenyl]thiazole]: the IC50 under setting [2] was 1000 nM. Regarding `CCOc1ccc(-c2nc(-c3cc(OC(C)=O)cc(OC(C)=O)c3)cs2)cc1OCC` [compound 79, 4-(3,5-Diacetyloxyphenyl)-2-(3,4-diethoxyphenyl) thiazole], the IC50 under setting [1] is 1.3 nM. Same read-out and setting: with `CCOc1ccc(-c2nc(-c3ccc(O)c(C(=O)OC)c3)cs2)cc1OCC` [compound 80, 4-(4-Hydroxy-3-methoxycarbonylphenyl)-2-(3,4-diethoxyphenyl)thiazole] the figure was 10 nM; with `CCOc1ccc(-c2nc(-c3ccc(OCC(=O)OC)c(C(=O)OC)c3)cs2)cc1OCC` [compound 81, 4-(4-Methoxycarbonylmethoxy-3-methoxycarbonylphenyl)-2-(3,4-diethoxyphenyl)thiazole], 26 nM; with `C=CCc1cc(-c2csc(-c3ccc(OCC)c(OCC)c3)n2)cc(C(=O)O)c1O` [compound 83, 4-(3-Carboxy-4-hydroxy-5-allylphenyl)-2-(3,4-diethoxyphenyl)thiazole], 40 nM. Same read-out and setting: the value for `C=C(C)Cc1cc(-c2csc(-c3ccc(OCC)c(OCC)c3)n2)cc(C(=O)O)c1O` [compound 84, 4-{3-Carboxy-4-hydroxy-5-(2-methyl-2-propenyl)-phenyl}-2-(3,4-diethoxyphenyl)thiazole] was 20 nM; that for `CCOc1ccc(-c2nc(-c3cc(C)c(O)c(C(=O)O)c3)cs2)cc1OCC` [compound 85, 4-(3-Carboxy-4-hydroxy-5-methylphenyl)-2-(3,4-diethoxyphenyl)thiazole] was 80 nM. `CCOc1ccc(-c2nc(-c3ccc(O)c(C(=O)OC)c3)cs2)cc1OC` [compound 86, 4-(3-Methoxycarbonyl-4-hydroxyphenyl)-2-(3-methoxy-4-ethoxyphenyl)thiazole] came in with a 50% inhibitory concentration (IC50) under setting [1] of 33 nM. For the compound `CCOc1ccc(-c2nc(-c3cccc(C(=O)O)c3)cs2)cc1OCC` [compound 87, 4-(3-Carboxyphenyl)-2-(3,4-diethoxyphenyl)thiazole], the IC50 by setting is: under setting [3], 4.8 nM; under setting [1], 4.8 nM. As to `CCOc1ccc(-c2nc(-c3ccc(O)c(C(=O)O)c3)cs2)cc1OC` [compound 88, 4-(3-Carboxy-4-hydroxyphenyl)-2-(3-methoxy-4-ethoxyphenyl)thiazole], the IC50 is 100 nM under setting [3] and 100 nM under setting [1].

As for `CCOc1ccc(-c2nc(-c3cc(N)c(O)c(C(=O)OC)c3)cs2)cc1OCC` [compound 89, 4-(3-Amino-4-hydroxy-5-methoxycarbonylphenyl)-2-(3,4-diethoxyphenyl)thiazole], the IC50 under setting [1] was 7 nM.

`CCCc1cc(-c2csc(-c3ccc(OCC)c(OCC)c3)n2)cc(C(=O)O)c1O` [compound 90] gave a half-inhibitory concentration (IC50) under setting [2] of 8 nM.

`CCOc1ccc(-c2nc(-c3cc(C(=O)O)ccc3O)cs2)cc1OCC` [compound 91, 4-(3-Carboxy-6-hydroxyphenyl)-2-(3,4-diethoxyphenyl)thiazole]: the IC50 came out at 23 nM under setting [3] and 23 nM under setting [1]. `CCOc1cc(-c2nc(-c3ccc(O)c(C(=O)O)c3)cs2)ccc1OC` [compound 92, 4-(3-Carboxy-4-hydroxyphenyl)-2-(3-ethoxy-4-methoxyphenyl)thiazole]: under setting [3], the IC50 is 20 nM.

As for `CCOc1ccc(-c2nc(-c3cc(CC(C)C)c(O)c(C(=O)O)c3)cs2)cc1OCC` [compound 93, 4-(3-Carboxy-4-hydroxy-5-isobutylphenyl)-2-(3,4-diethoxyphenyl)thiazole], half-maximal inhibition under setting [1] (IC50) required 12 nM. Under setting [1], `CCOc1ccc(-c2nc(-c3cc(C(=O)O)c(N)cc3O)cs2)cc1OCC` [compound 95, 4-(3-Carboxy-4-amino-6-hydroxyphenyl)-2-(3,4-diethoxyphenyl)thiazole] registered an IC50 of 8.7 nM. The compound `CCOc1ccc(-c2nc(-c3ccc(N)c(C(=O)O)c3)cs2)cc1OCC` [compound 96, 4-(3-Carboxy-4-aminophenyl)-2-(3,4-diethoxyphenyl)-thiazole] returned an IC50 under setting [1] of 23 nM.

Compound `CCOc1ccc(C2(c3ccc(OCC)c(OCC)c3)NC(c3ccc(OC(C)=O)c(C(=O)O)c3)=CS2)cc1OCC` [compound 97, 4-(3-Carboxy-4-acetyloxyphenyl)-2-(3,4-diethoxyphenyl)-2-(3,4-diethoxyphenyl)thiazole] returned an IC50 under setting [1] of 100 nM.

One may read the IC50 as the point on the concentration scale where inhibition reaches its midpoint. High values mean a need for much substance, low ones inhibition by little substance.
